Earlier results on one substance are cited in patent publication US11541018B2 (priority 2016, dated 2023).

Broadly, the LogP is the decadic logarithm of the partition coefficient of the neutral form, usually between octanol and water.

The conditions of series [1]: active agent (base).
For series [2] the following is noted: active agent (base). This is another data set of the same source.

In the case of ropinole, the Water solubility in series [1] was 133 mg/mL. For the same substance, the LogP in series [2] is given as 2.7.
